Like-named read-outs stand apart in the source and are kept apart here.
Legend:
[1] = biological target: recombinant PARP1 (AA662-1014) protein (Homo sapiens (Human), UniProt P09874); test: Tracer displacement fluorescence polarization assay; conditions: displacement of AlexaFluor488 tracer from NAD+-binding site, PARP1 25 nM
Experimental: Example B. Tracer Displacement Fluorescence Polarization Assays
Displacement of AlexaFlour488 marked tracer from the NAD+-binding site of recombinant PARP1 (AA662-1014) protein (OriGene, Cat #: AR09368PU-L) was measured in vitro using Fluorescence polarization assay. The reaction was carried out in assay buffer (50 mM TRIS-HCl pH 7.4-7.8, 150 mM NaCl, 10 mM MgCl2, 0.001% Triton-X). 2×PARP1 (final concentration 25 nM) was diluted in 1× Assay buffer and 10 μl of the solution per well was added into 384-well Black Non-Treated Reaction plate (Corning, Cat #4511). Plates were centrifuged for 1 min at 200 g. The compounds were prepared in a 384-well Diamond Well Plate (Axygen, Cat #P-384-120SQ-C-S) as 400× solutions in DMSO and were transferred into Reaction plate using the Biomek FX liquid handling system with intermediate dilution down to 10× working solution in assay buffer in a separate 384-well Diamond Well Plate (Axygen, Cat #P-384-120SQ-C-S) (2 μl per well). Plates were centrifuged for 1 min at 200 g and incubated for 15 min at room temperature in the dark. Then 8 μL per well of 2.5× Tracer AlexaFluor488 (final concentration 1 nM) diluted in 1× Assay buffer was added into Reaction plate. 1× Assay buffer was used to make blank samples for instrument calculations. Plates were incubated for 30 minutes at room temperature in the dark. Fluorescence polarization was measured using Microplate Reader (BMG, ClarioStar Plus). The % tracer displacement was used to calculate the IC50 values. The IC50 values are shown in Table A, wherein “A” corresponds to IC50<0.01 μM, “B” corresponds to 0.01 μM≤IC50<0.1 μM, “C” 0.1 μM≤IC50<[…], and “D” corresponds to […].

[2] = biological target: recombinant Wee1 protein (Homo sapiens (Human), UniProt P30291); test: Wee1 enzymatic activity inhibition, ADP-Glo luminescence assay; type: biochemical; conditions: recombinant Wee1, PolyE4Y1 substrate, 1 h room temperature
Sequence of recombinant Wee1 protein (P30291 whole entry): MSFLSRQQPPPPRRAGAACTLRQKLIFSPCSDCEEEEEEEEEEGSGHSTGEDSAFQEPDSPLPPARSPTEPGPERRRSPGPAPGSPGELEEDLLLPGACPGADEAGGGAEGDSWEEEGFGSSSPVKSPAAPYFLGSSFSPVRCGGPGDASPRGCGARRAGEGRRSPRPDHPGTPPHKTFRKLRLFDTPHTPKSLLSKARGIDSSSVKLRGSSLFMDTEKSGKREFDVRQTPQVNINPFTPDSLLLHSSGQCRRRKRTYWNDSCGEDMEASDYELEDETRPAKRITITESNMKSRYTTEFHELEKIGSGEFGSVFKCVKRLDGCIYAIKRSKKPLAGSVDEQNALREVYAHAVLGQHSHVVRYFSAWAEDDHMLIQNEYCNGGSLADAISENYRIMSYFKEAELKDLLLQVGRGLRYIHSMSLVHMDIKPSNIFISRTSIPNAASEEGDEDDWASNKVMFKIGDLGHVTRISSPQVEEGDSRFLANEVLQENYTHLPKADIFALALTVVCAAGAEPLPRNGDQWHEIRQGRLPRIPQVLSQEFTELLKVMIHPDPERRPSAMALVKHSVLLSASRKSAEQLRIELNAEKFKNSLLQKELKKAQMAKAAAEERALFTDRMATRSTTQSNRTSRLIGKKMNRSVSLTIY
Experimental: Example A. Primary Assay Used to Determine Potency of Wee1 Enzymatic Activity Inhibition
Compound activity was determined using recombinant Wee1 protein (BPS, Cat #40412) and PolyE4Y1 Substrate (Poly(Glu,Tyr) sodium salt, Sigma, Cat #P0275-25MG) in an in vitro enzymatic reaction. The enzymatic assay used to determine activity was a Luminescence assay using a Microplate Reader (BMG, ClarioStar Plus). The enzymatic reaction was carried out in assay buffer (40 mM TRIS-HCl pH 7.4-7.6, 20 mM MgCl2, 0.05 mM DTT, 0.1 mg/ml BSA, 5 mM MnCl2). The compounds were dispensed on a 384 well Diamond Well Plate (Axigen, Cat #P-384-120SQ-C-S) using the Biomek FX liquid handling system at 100× solutions of compounds in DMSO. 2×Wee1-PolyE4Y1 mix (final concentration 0.85 ng/μl of Wee1 and 0.2 μg/μl of PolyE4Y1) was prepared in 1× Assay buffer and 5.5 μl of mixture per well was added into 384w white Reaction plate with NBS (Corning, Cat #4513). 5.5 μl of PolyE4Y1 substrate w/o Wee1 in 1× buffer was used for negative control. Plates were centrifuged for 1 min at 100 g. Next step the Compounds were added to Reaction plate using Biomek station via following steps: 1 μl of 100× compounds (in DMSO) were mixed thoroughly with 49 μl of 2×10 μM ATP in Assay Buffer, then 5.5 μl of this mixture was added to Reaction plate with 5.5 μl of Wee1-PolyE4Y1 mix. Plates were centrifuged for 1 min at 100 g and incubated for 1 h at room temperature. Next 3 μL of ADP-Glo reagent (Promega, ADP-Glo™ Kinase Assay, Cat #V9102) per well was added. Plates were incubated for 30 minutes at room temperature. Then 6 μL of Kinase detection reagent (Promega, ADP-Glo™ Kinase Assay, Cat #V9102) per well was added and the Luminescence was measured using Microplate Reader. The % inhibition was then used to calculate the IC50 values. The IC50 values are shown in Table A, wherein “A” corresponds to IC50<0.01 μM, “B” corresponds to 0.01 μM≤IC50<0.1 μM, “C” 0.1 μM≤IC50<1 μM, and “D” corresponds to […].

[3] = tested on: MDA-MB-231; test: Cellular growth inhibition assay (CellTiter-Glo); type: cell-based; conditions: Homo sapiens
Experimental: Example E. Cellular Growth Inhibition Assay
HEK293 (Institute of Cytology Russian Academy of Science), MDA-MB-231 (ATCC, CRM-HTB-26), HCC1395 (ATCC, CRL-2324), HCC1937 (ATCC, CRL-2336), UWB1.289+BRCA1 (ATCC, CRL-2946) were seeded at a density of 500 cells per well in a 384-well clear bottom plate (Greiner Cat #781090) in 45 μl total volume of DMEM (PanEco, Cat #C420) or RPMI (PanEco, Cat #C330) or RPMI/MEBM (Lonza, Cat #CC-3151+CC-4136) with 10% FBS (HyClone, Cat #SV30160.03). Cells were allowed to adhere overnight at 370 C, 5% CO2. 500× compounds solutions in DMSO (Sigma Cat #D2650) were prepared into Cmpnds plate (Diamond Well Plate, Axigen, Cat #P-384-120SQ-C-S) and DMSO only control was included. 1 μl of 500× compounds (Cmpnds plate) was added to 49 μl of culture medium into Dilution plate (Diamond Well Plate, Axigen, Cat #P-384-120SQ-C-S), mixed and then 5 μl of 10× compounds solutions were transferred to cells followed by centrifugation at 100 g for 1 min. Final DMSO concentration was 0.2%. After 3 days of incubation, 10 μl of 1× compounds were added to cells. […]

Sequence of recombinant PARP1 (AA662-1014) protein (P09874 662-1014): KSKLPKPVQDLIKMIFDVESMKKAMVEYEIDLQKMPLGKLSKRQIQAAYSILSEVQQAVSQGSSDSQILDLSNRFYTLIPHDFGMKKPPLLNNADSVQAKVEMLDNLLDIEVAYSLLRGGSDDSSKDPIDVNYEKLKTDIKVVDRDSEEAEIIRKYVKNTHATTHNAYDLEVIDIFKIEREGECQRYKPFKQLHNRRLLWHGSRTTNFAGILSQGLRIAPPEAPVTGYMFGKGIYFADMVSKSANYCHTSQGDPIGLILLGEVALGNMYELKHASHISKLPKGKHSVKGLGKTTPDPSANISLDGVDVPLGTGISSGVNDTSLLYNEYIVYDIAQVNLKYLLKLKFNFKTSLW

| Compound | EC50 [1] [nM] | EC50 [2] [nM] | EC50 ([3]; 120 h, MDA-MB-231, 5 days, read-out: MDA-MB-231 EC50 (μM) 5 days) [µM] | EC50 ([3]; 168 h, MDA-MB-231, 7 days, read-out: MDA-MB-231 EC50 (μM) 7 days) [µM] | EC50 ([3]; 240 h, MDA-MB-231, 10 days, read-out: MDA-MB-231 EC50 (μM) 10 days) [µM] |
| --- | --- | --- | --- | --- | --- |
| COCCn1c(=O)c2cnc(Nc3ccc(N4CCN(C(=O)c5cc(Cc6n[nH]c(=O)c7ccccc67)ccc5F)CC4)cc3)nc2n1-c1cccc(C(C)(C)O)n1 [Compound 13, 4-(4-Fluoro-3-{[4-(4-{[1-[6-(1-hydroxy-1-methylethyl)pyridin-2-yl]-2-(2-methoxyethyl)-3-oxo-2,3-dihydro-1H-pyrazolo[3,4-d]pyrimidin-6-yl]amino}phenyl)piperazin-1-yl]carbonyl}benzyl)phthalazin-1(2H)-one] | < 10 | 10 to 100 | – | – | – |
| Cn1c(=O)c2cnc(Nc3ccc(N4CCC(n5cc6cccc(C(N)=O)c6n5)CC4)cc3)nc2n1-c1ccccn1 [Compound 83] | 10 to 100 | 10 to 100 | – | – | – |
| C=CCn1c(=O)c2cnc(Nc3ccc(N4CCN(C(=O)c5cc(Cc6n[nH]c(=O)c7ccccc67)ccc5F)CC4)cc3)nc2n1-c1cccc(C(C)(C)O)c1 | < 10 | – | 0.69 | 0.66 | 0.11 |
| Cn1c(=O)c2cnc(Nc3ccc(N4CCC(c5nc6cccc(C(N)=O)c6[nH]5)CC4)cc3)nc2n1-c1ccccn1 [Compound 95, 2-[1-[4-[[2-methyl-3-oxo-1-(2-pyridyl)pyrazolo[3,4-d]pyrimidin-6-yl]amino]phenyl]-4-piperidyl]-3H-benzimidazole-4-carboxamide] | 10 to 100 | 10 to 100 | – | – | – |
| COCCn1c(=O)c2cnc(Nc3ccc(N4CCN(C(=O)c5cc(Cc6n[nH]c(=O)c7ccccc67)ccc5F)CC4)cc3)nc2n1-c1ccccn1 [Compound 9, 4-(4-Fluoro-3-{[4-(4-{[2-(2-methoxyethyl)-3-oxo-1-pyridin-2-yl-2,3-dihydro-1H-pyrazolo[3,4-d]pyrimidin-6-yl]amino}phenyl)piperazin-1-yl]carbonyl}benzyl)phthalazin-1(2H)-one] | < 10 | 10 to 100 | – | – | – |
| C=CCn1c(=O)c2cnc(Nc3ccc(N4CCN(Cc5cc(Cc6n[nH]c(=O)c7ccccc67)ccc5F)CC4)cc3)nc2n1-c1cccc(C(C)(C)O)n1 [Compound 14, 4-[3-({4-[4-({2-Allyl-1-[6-(1-hydroxy-1-methylethyl)pyridin-2-yl]-3-oxo-2,3-dihydro-1H-pyrazolo[3,4-d]pyrimidin-6-yl}amino)phenyl]piperazin-1-yl}methyl)-4-fluorobenzyl]phthalazin-1(2H)-one] | 100 to 1000 | 10 to 100 | – | – | – |
| Cn1c(=O)c2cnc(Nc3ccc(N4CCN(C(=O)c5cc(Cn6c(=O)[nH]c(=O)c7c(F)cccc76)ccc5F)CC4)cc3)nc2n1-c1ncccn1 [Compound 29, 5-Fluoro-1-{4-fluoro-3-[(4-{4-[(2-methyl-3-oxo-1-pyrimidin-2-yl-2,3-dihydro-1H-pyrazolo[3,4-d]pyrimidin-6-yl)amino]phenyl}piperazin-1-yl)carbonyl]benzyl}quinazoline-2,4(1H,3H)-dione] | < 10 | 100 to 1000 | – | – | – |
| Cn1c2nc(Nc3ccc(N4CCCC(c5nc6cccc(C(N)=O)c6[nH]5)C4)cc3)ncc2c(=O)n1-c1ccccn1 (stereo not drawn) [Compound 97] | 10 to 100 | 100 to 1000 | – | – | – |
| O=C(c1cc(Cc2n[nH]c(=O)c3ccccc23)ccc1F)N1CCN(c2ccc(Nc3ncc4c(=O)n(CCO)n(-c5ccccn5)c4n3)cc2)CC1 [Compound 15, 4-(4-Fluoro-3-{[4-(4-{[2-(2-hydroxyethyl)-3-oxo-1-pyridin-2-yl-2,3-dihydro-1H-pyrazolo[3,4-d]pyrimidin-6-yl]amino}phenyl)piperazin-1-yl]carbonyl}benzyl)phthalazin-1(2H)-one] | < 10 | 100 to 1000 | – | – | – |
| Cn1c(=O)c2cnc(Nc3ccc(N4CCN(Cc5ccc(-c6[nH]c7cc(F)cc8c7c6CCNC8=O)cc5)CC4)cc3)nc2n1-c1cccc(C(C)(C)O)n1 [Compound 40, 8-Fluoro-2-[4-({4-[4-({1-[6-(1-hydroxy-1-methylethyl)pyridin-2-yl]-2-methyl-3-oxo-2,3-dihydro-1H-pyrazolo[3,4-d]pyrimidin-6-yl}amino)phenyl]piperazin-1-yl}methyl)phenyl]-1,3,4,5-tetrahydro-6H-azepino[5,4,3-cd]indol-6-one] | 10 to 100 | 10 to 100 | – | – | – |
| C=CCn1c(=O)c2cnc(N3CCN(Cc4ccc(-c5[nH]c6cc(F)cc7c6c5CCNC7=O)cc4)CC3)nc2n1-c1cccc(C(C)(C)O)n1 [Compound 44, 2-{4-[(4-{2-Allyl-1-[6-(1-hydroxy-1-methylethyl)pyridin-2-yl]-3-oxo-2,3-dihydro-1H-pyrazolo[3,4-d]pyrimidin-6-yl}piperazin-1-yl)methyl]phenyl}-8-fluoro-1,3,4,5-tetrahydro-6H-azepino[5,4,3-cd]indol-6-one] | < 10 | ≥ 1 | – | – | – |
| Cn1c(=O)c2cnc(Nc3ccc(N4CCN(Cc5ccc(-c6[nH]c7cc(F)cc8c7c6CCNC8=O)cc5)CC4)cc3)nc2n1-c1ccccn1 [Compound 36, 8-Fluoro-2-{4-[(4-{4-[(2-methyl-3-oxo-1-pyridin-2-yl-2,3-dihydro-1H-pyrazolo[3,4-d]pyrimidin-6-yl)amino]phenyl}piperazin-1-yl)methyl]phenyl}-1,3,4,5-tetrahydro-6H-azepino[5,4,3-cd]indol-6-one] | < 10 | 10 to 100 | – | – | – |
| COCCn1c(=O)c2cnc(Nc3ccc(N4CCN(Cc5ccc(-c6[nH]c7cc(F)cc8c7c6CCNC8=O)cc5)CC4)cc3)nc2n1-c1ccccn1 [Compound 38, 8-Fluoro-2-(4-{[4-(4-{[2-(2-methoxyethyl)-3-oxo-1-pyridin-2-yl-2,3-dihydro-1H-pyrazolo[3,4-d]pyrimidin-6-yl]amino}phenyl)piperazin-1-yl]methyl}phenyl)-1,3,4,5-tetrahydro-6H-azepino[5,4,3-cd]indol-6-one] | 10 to 100 | 100 to 1000 | – | – | – |
| Cn1c2nc(Nc3ccc(N4CCC(n5cc6cccc(C(N)=O)c6n5)CC4)cc3)ncc2c(=O)n1-c1ccccn1 [Compound 86] | 10 to 100 | 100 to 1000 | – | – | – |
